# Source: the PolyMetriX glass transition set
# ± gives the standard deviation of the reports.
row,glass transition temperature,Compound
1,176.50 °C,*Oc1cccc(Oc2ccc(NC(=O)c3ccc(Oc4cccc(Oc5ccc(C(=O)Nc6ccc(*)cc6)cc5)c4)cc3)cc2)c1 (repeat unit)
2,84.00 °C,*Cc1cccc(CNC(=O)CCCCC(=O)N*)c1 (repeat unit)
3,248.00 °C,*Oc1ccc(S(=O)(=O)c2ccc(Oc3c(C)cc(C(c4cc(C)c(*)c(C)c4)(C(F)(F)F)C(F)(F)F)cc3C)cc2)cc1 (repeat unit)
4,257.00 °C,*Cc1cc2cc(C(=O)Nc3ccc(C(c4ccc(NC(=O)c5cc6cc(*)c(OC(=O)COc7ccc8ccc(=O)oc8c7)cc6oc5=O)cc4)(C(F)(F)F)C(F)(F)F)cc3)c(=O)oc2cc1OC(=O)COc1ccc2ccc(=O)oc2c1 (repeat unit)
5,300.00 °C,*Nc1ccc(C(=O)Nc2ccc(Cc3ccc(NC(=O)c4ccc(NC(=O)c5ccc([Si](C)(C)c6ccc(C(*)=O)cc6)cc5)cc4)cc3)cc2)cc1 (repeat unit)
6,65.00 °C,*CC(*)(C)C(=O)Nc1cccc(-c2nnc(-c3ccccc3)o2)c1 (repeat unit)
7,278.00 °C,*c1ccc(Oc2ccc(C(=O)c3ccc(C(=O)c4ccc(Oc5ccc(-c6nc(-c7ccc(-c8nc(*)c(-c9ccccc9)[nH]8)cc7)[nH]c6-c6ccccc6)cc5)cc4)cc3)cc2)cc1 (repeat unit)
8,126.00 °C,*CC(*)c1cc(C(=O)OC)ccc1-c1ccc(OCCCCCCCC)cc1 (repeat unit)
9,234.00 °C,*Oc1ccc(C2(c3ccc(OC(=O)CCC(*)=O)cc3)c3ccccc3-c3ccccc32)cc1 (repeat unit)
10,300.00 °C,*Nc1cccc(NC(=O)c2cc(NC(=O)c3ccccc3)cc(C(*)=O)c2)c1 (repeat unit)
11,148.00 °C,*Nc1cc(NC(=O)NC2CCC(CC3CCC(NC(*)=O)CC3)CC2)cc(C(=O)Nc2ccc3c(c2)C(=O)c2ccccc2C3=O)c1 (repeat unit)
12,202.00 °C,*Oc1ccc(Oc2ccc(C(=O)c3cccc(NC(=O)c4cccc(C(=O)Nc5cccc(C(=O)c6ccc(*)cc6)c5)c4)c3)cc2)cc1 (repeat unit)
13,309.00 °C,*c1ccc2c(c1)C(=O)N(c1cccc(Oc3ccc(N4C(=O)c5ccc(-c6c(-c7ccccc7)c(-c7ccccc7)c(-c7ccc(Oc8ccc(-c9c(-c%10ccccc%10)c(-c%10ccccc%10)c(*)c(-c%10ccccc%10)c9-c9ccccc9)cc8)cc7)c(-c7ccccc7)c6-c6ccccc6)cc5C4=O)cc3)c1)C2=O (repeat unit)
14,311.00 °C,*C(=O)c1ccc2c(c1)C(=O)N(c1cccc(C(c3ccccc3)(c3cccc(N4C(=O)c5ccc(*)cc5C4=O)c3)C(F)(F)F)c1)C2=O (repeat unit)
15,198.00 °C,*Nc1cc(NC(=O)c2ccc(C(*)=O)cc2)cc(C(=O)OCCOC(=O)/C=C/c2ccc(N(C)C)cc2)c1 (repeat unit)
16,177.00 °C,*Oc1ccc(S(=O)(=O)c2ccc(Oc3ccc(NC(=O)c4ccc(Oc5ccc(C(C)(C)c6ccc(C(C)(C)c7ccc(Oc8ccc(C(=O)Nc9ccc(*)cc9)cc8)cc7)cc6)cc5)cc4)cc3)cc2)cc1 (repeat unit)
17,150.00 °C,*Oc1ccc(/N=C(\C)c2ccc(Oc3ccc(C(c4ccccc4)(c4ccccc4)c4ccc(Oc5ccc(/C(C)=N/c6ccc(*)cc6)cc5)cc4)cc3)cc2)cc1 (repeat unit)
18,208.00 °C,*c1ccc(NC(=O)c2cc(NC(=O)c3ccc(NC(=O)C(C)N4C(=O)c5ccccc5C4=O)cc3)cc(C(=O)Nc3ccc(S(*)(=O)=O)cc3)c2)cc1 (repeat unit)
19,356.00 °C,*C(=O)Nc1ccc(NC(=O)c2ccc3c(c2)C(=O)N(c2cc(-c4nc5ccccc5s4)cc(N4C(=O)c5ccc(*)cc5C4=O)c2)C3=O)cc1 (repeat unit)
20,-30.00 °C,*CC(F)(F)C(F)(F)C(F)(F)COC(=O)c1cc(OCCCCC)cc(C(=O)O*)c1 (repeat unit)
21,257.50 °C,*C(=O)Nc1cccc(NC(=O)/C=C/c2cccc(N3C(=O)c4ccc(*)cc4C3=O)c2)c1 (repeat unit)
22,321.00 °C,*c1ccc(C(c2ccccc2)c2ccc(-n3c(=O)c4cc5c(=O)n(*)c(=O)c5cc4c3=O)cc2)cc1 (repeat unit)
23,213.00 °C,*Oc1ccc(C(c2ccc(Oc3ccc(C(=O)c4cccc5cccc(C(=O)c6ccc(*)cc6)c45)cc3)cc2)(C(F)(F)F)C(F)(F)F)cc1 (repeat unit)
24,139.00 °C,*CCOC(=O)Nc1ccc(Cc2ccc(NC(=O)O*)cc2)cc1 (repeat unit)
25,128.00 °C,*CC(*)(C)C(=O)OCC(=O)N1CCOCC1 (repeat unit)
26,73.50 °C,*CC(*)(CC(=O)Oc1ccc(OCCCCC)cc1)C(=O)Oc1ccc(OCCCCC)cc1 (repeat unit)

row,glass transition temperature,Compound
1,229.00 °C,*c1ccc(Oc2ccc(N3C(=O)c4ccc(Oc5ccc(-c6ccc(Oc7ccc8c(c7)C(=O)N(*)C8=O)cc6)cc5)cc4C3=O)cc2)cc1 (repeat unit)
2,-68.00 °C,*CCOCCOC(=O)CCCCCCCCCCCCCCCCC(=O)O* (repeat unit)
3,147.50 °C,*C(CC(C)C)C(=O)Nc1ccc(Oc2ccc(NC(=O)NCC3(C)CC(NC(=O)Nc4ccc(Oc5ccc(NC(=O)C(CC(C)C)n6c(=O)c7cc8c(=O)n(*)c(=O)c8cc7c6=O)cc5)cc4)CC(C)(C)C3)cc2)cc1 (repeat unit)
4,108.00 °C,*CC(*)(C)C(=O)OCCCCCCOc1ccc(/N=N/c2ccc([N+](=O)[O-])cc2)cc1 (repeat unit)
5,160.00 °C,*CCOC(=O)Nc1ccc(C)c(NC(=O)OCCOc2cc([N+](=O)[O-])ccc2/N=N/c2cn(*)c3ccc(-c4ccc5c(c4)c4ccccc4n5CCCC)cc23)c1 (repeat unit)
6,219.00 °C,*Oc1ccc(Oc2ccc(NC(=O)c3ccc(-c4ccc(C(=O)Nc5ccc(*)cc5)c(C)c4)cc3C)cc2)cc1 (repeat unit)
7,265.00 °C,*Nc1cccc(NC(=O)CCCCCCCCC(=O)Nc2ccc(C(=O)NC(*)=S)cc2)c1 (repeat unit)
8,48.1 °C,*Oc1ccc(/C=C2\CCC/C(=C\c3ccc(OC(=O)CCCCCCCCC(*)=O)c(OC)c3)C2=O)cc1OC (repeat unit)
9,90.00 °C,*CCCCCCCCOc1ccc(/C=C2\CCC/C(=C\c3ccc(O*)cc3)C2=O)cc1 (repeat unit)
10,130.00 °C,*c1cc(-c2nc3ccccc3oc2=O)cc(-n2c(=O)c3cc4c(=O)n(*)c(=O)c4cc3c2=O)c1 (repeat unit)
11,226.50 ± 12 °C,*c1cccc(Oc2ccc(C(c3ccc(Oc4cccc(-n5c(=O)c6cc7c(=O)n(*)c(=O)c7cc6c5=O)c4)cc3)(C(F)(F)F)C(F)(F)F)cc2)c1 (repeat unit)
12,195.00 °C,*Oc1ccc(-c2ccc(Oc3ccc(C(=O)c4ccc5cc(C(=O)c6ccc(*)cc6)ccc5c4)cc3)cc2)cc1 (repeat unit)
13,210.00 °C,*Oc1ccc(C(c2ccccc2)(c2ccccc2)c2ccc(OC(=O)c3ccc(C(*)=O)cc3)cc2)cc1 (repeat unit)
14,102.40 °C,*NNC(=O)/C=C/C(=O)NCCCCCCNC(=O)/C=C/C(*)=O (repeat unit)
15,95.00 °C,*Oc1ccc(-c2ccc(OC(=O)CCCCCCCCCCCCC(*)=O)cc2)cc1 (repeat unit)
16,-12.00 °C,*CCCCCCCCOc1ccc(CCc2ccc(O*)cc2C)cc1 (repeat unit)
17,52.00 °C,*c1ccc(OCCCCCCCCCCCOC(=O)CCCCCCCCC(=O)OCCCCCCCCCCCOc2ccc(-c3nnc(*)s3)cc2)cc1 (repeat unit)
18,55.00 °C,*CCCCCCCCCCCCc1nc2ccc(-c3ccc4nc(*)oc4c3)cc2o1 (repeat unit)
19,244.00 °C,*c1ccc2c(c1)C(=O)N(c1cccc(Oc3cccc(N4C(=O)c5ccc(C(*)(C(F)(F)F)C(F)(F)F)cc5C4=O)c3)c1)C2=O (repeat unit)
20,67.00 °C,*c1cccc(S(=O)(=O)NCCCCCCNS(*)(=O)=O)c1 (repeat unit)
21,166.00 °C,*c1ccc(C(=O)Oc2ccc(OC(=O)c3ccc(N4C(=O)CC(SCCOCCSC5CC(=O)N(*)C5=O)C4=O)cc3)cc2)cc1 (repeat unit)
22,104.00 °C,*CCCCCCNC(=O)Cc1ccc(C(=O)N*)cc1 (repeat unit)
23,230.00 °C,*c1ccc(Oc2ccc(-c3ccc(Oc4ccc(N5C(=O)c6ccc(Oc7ccc(Oc8ccc9c(c8)C(=O)N(*)C9=O)cc7)cc6C5=O)cc4)cc3)cc2)cc1 (repeat unit)
24,107.00 °C,*Oc1ccc(C(C)c2ccc(OC(*)=S)cc2)cc1 (repeat unit)
25,49.00 °C,*CC(*)c1cc(Br)ccc1OCCCCC (repeat unit)

row,Compound,glass transition temperature
1,*CC(*)(C)C(=O)Oc1ccc(C)cc1C (repeat unit),109.00 °C
2,*CCCCCCCCCCOc1ccc(/C=C/c2ccc(OCCCCCCCCCCOP(=O)(O*)OCCCCCCCCCCOc3ccc(/N=N/c4ccc(-c5ccccc5)cc4)cc3)cc2)cc1 (repeat unit),50.00 °C
3,*CCOCCOC(=O)CC(=O)O* (repeat unit),-41.50 °C
4,*C([2H])([2H])C(*)([2H])c1c([2H])c([2H])c([2H])c([2H])c1[2H] (repeat unit),97.00 °C
5,*SC1CCCCC1* (repeat unit),-43.00 °C
6,*CCCCCCCCC(Cl)C(*)Cl (repeat unit),-30.00 °C
7,*CC(*)(CC(=O)OC)C(=O)O (repeat unit),159.00 °C
8,*/C(C)=[C](/*)[Ge]([CH3])([CH3])[CH3] (repeat unit),250.00 °C
9,*CC(COCC)O* (repeat unit),-61.00 °C
10,*C(=O)OCCOC(=O)N1CCN(*)CC1 (repeat unit),60.00 °C
11,*CC1(*)CC(=O)N(c2ccccc2)C1=O (repeat unit),236.00 °C
12,*CC(*)C(=O)NC(C)(C)C (repeat unit) [Poly(N-tert-butyl acrylamide)],131.42 ± 5.1 °C
13,*CC(*)C1CCCC1 (repeat unit) [Poly(vinyl cyclopentane) ],75 ± 0.6 °C
